Where two headings read alike, the source gives them in different places.
How the values were obtained:
22RV1 cells = assay: Cell growth inhibition, 4-day proliferation assay (WST-8); assay type: cell-based; details: Homo sapiens, 96 h; 22RV1, prostate carcinoma, 4 days
Experimental: (§1) The effect of representative Compounds of the Disclosure on cell viability was determined in a 4-day proliferation assay. Cells were maintained in the appropriate culture medium with 10% FBS at 37° C. and an atmosphere of 5% CO2. Also, the effect of a MDM2 inhibitor (Cpd. A; see Compound Example No. 22 of U.S. Pat. No. 8,629,141) and a known MDM2 degrader (Cpd. D, see Cpd. No. 175 of WO 2017/0176957) on cell viability in various cell lines is also included in Table 5. Cpd. […] A and D. The structure of Cpd. A is:
(§2) Cells were seeded in 96-well flat bottom (Corning COSTAR, Corning, N.Y., cat #3595) at a density of 2,000-3,000 cells/well in 100 μL of culture medium. Compounds were serially diluted in the appropriate medium, and 100 μL of the diluted compounds were added to the appropriate wells of the cell plate. After the addition of compounds, the cells were incubated at 37° C. in an atmosphere of 5% CO2 for 4 days. Cell viability was determined using the WST (2-(2-methoxy-4-nitrophenyl)-3-(4-nitrophenyl)-5-(2,4-disulfophenyl)-2H-tetrazolium, monosodium salt) Cell Counting-8 Kit (Dojindo Molecular Technologies, Inc., Rockville, Md.) according to the manufacturers' instructions.
(§3) WST-8 reagent was added to each well at a final concentration of 10% (v/v), and then the plates were incubated at 37° C. for 1-2 hours for color development. The absorbance was measured at 450 nm using a SPECTRAmax PLUS plate reader (Molecular Devices, Sunnyvale, Calif.). The readings were normalized to the DMSO-treated cells and the half maximal inhibitory concentration (IC50) was calculated by nonlinear regression (four parameters sigmoid fitted with variable slope, least squares fit, and no constraint) analysis using the GraphPad Prism 5 software (GraphPad Software, La Jolla, Calif.).

RS4;11 cells = assay: as above; assay type: cell-based; details: Homo sapiens, 96 h; RS4; 11, precursor cell lymphoblastic leukemia, 4 days; read-out: IC50
Experimental: as §1, §2, §3

p53 protein [1] = assay: Western blot analysis in 22RV1 cells, p53; assay type: cell-based, human; details: 2 hr treatment
Experimental: (§4) 22RV1 cells were treated with Cpd. No. 4 and Cpd. D (MDM2 degraders) or with Cpd. A (MDM2 inhibitor) for 2 hr. MDM2 and p53 proteins were probed using specific antibodies. GAPDH was used as the loading control. […] No. 4 and Cpd. D reduce MDM2 protein and increase p53 protein level, and that Cpd. A increases MDM2 and p53 protein levels in 22RV1 cells.

MDM2 protein [2] = biological target: T1, MDM2 protein (Homo sapiens, UniProt Q00987); assay: Western blot analysis in 22RV1 cells, MDM2; assay type: cell-based; parameters: endogenous in cells; details: 2 hr treatment
T1 sequence (Q00987 whole entry): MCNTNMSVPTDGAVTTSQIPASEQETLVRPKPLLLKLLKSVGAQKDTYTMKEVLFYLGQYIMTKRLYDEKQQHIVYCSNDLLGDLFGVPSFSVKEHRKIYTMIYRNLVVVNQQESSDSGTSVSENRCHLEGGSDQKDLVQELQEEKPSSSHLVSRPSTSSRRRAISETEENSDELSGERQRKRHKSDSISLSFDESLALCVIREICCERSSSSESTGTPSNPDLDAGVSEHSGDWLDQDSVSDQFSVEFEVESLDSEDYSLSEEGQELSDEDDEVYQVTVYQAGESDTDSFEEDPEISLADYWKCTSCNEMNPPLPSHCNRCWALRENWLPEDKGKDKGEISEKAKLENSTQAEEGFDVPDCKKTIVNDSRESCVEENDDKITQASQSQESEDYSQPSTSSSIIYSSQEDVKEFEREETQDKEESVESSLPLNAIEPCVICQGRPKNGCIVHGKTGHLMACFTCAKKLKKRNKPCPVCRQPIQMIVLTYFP
Experimental: as §4

p53 protein [3] = assay: Western blot analysis in RS4;11 cells, p53; assay type: cell-based, human; details: 2 hr treatment
Experimental: (§5) RS4;11 cells were treated with Cpd. No. 4 and Cpd. No. 6 (MDM2 degraders) or with Cpd. B and Cpd. C (MDM2 inhibitors) for 2 hr. MDM2 and p53 proteins were probed using specific antibodies. GAPDH was used as the loading control. […] No. 4 and Cpd. No. 6 reduce MDM2 protein and increase p53 protein level, and that Cpd. B and Cpd. C increase MDM2 and p53 protein levels in RS4;11 cells. The structures of Cpd. B (see Compound Example No. 24 of U.S. Pat. No. 8,629,141) and Cpd.

MDM2 protein [4] = biological target: T1, MDM2 protein; assay: Western blot analysis in RS4;11 cells, MDM2; assay type: cell-based; parameters: No. 4 and Cpd; No. 6 (MDM2 degraders); endogenous in cells; host or cells: RS4;11; details: 2 hr treatment
Experimental: as §5

HCT116 cells = assay: Cell growth inhibition, 4-day proliferation assay (WST-8); assay type: cell-based; details: Homo sapiens, HCT-116, 96 h; HCT116, colorectal carcinoma, 4 days
Experimental: as §1, §2, §3

LNCaP cells = assay: as above; assay type: cell-based; details: Homo sapiens, 96 h, prostate carcinoma, 4 days
Experimental: as §1, §2, §3

ML-2 cells = assay: as above; assay type: cell-based; details: Homo sapiens, 96 h; ML-2, acute myeloid leukemia, 4 days
Experimental: as §1, §2, §3

MOLM-13 cells = assay: as above; assay type: cell-based; details: Homo sapiens, 96 h; MOLM-13, acute myeloid leukemia, 4 days
Experimental: as §1, §2, §3

MOLM-14 cells = assay: as above; assay type: cell-based; details: Homo sapiens, 96 h; MOLM-14, acute myeloid leukemia, 4 days
Experimental: as §1, §2, §3

MV-4;11 cells = assay: as above; assay type: cell-based; details: Homo sapiens, MV4-11, 96 h, 11, acute biphenotypic B myelomonocytic leukemia, 4 days
Experimental: as §1, §2, §3

OCI-AML-2 cells = assay: as above; assay type: cell-based; details: Homo sapiens, OCI-AML2, 96 h; OCI-AML-2, acute myeloid leukemia, 4 days
Experimental: as §1, §2, §3

OCI-AML-5 cells = assay: as above; assay type: cell-based; details: Homo sapiens, 96 h; OCI-AML-5, acute myeloid leukemia, 4 days
Experimental: as §1, §2, §3

SIG-M5 cells = assay: as above; assay type: cell-based; details: Homo sapiens, 96 h; SIG-M5, acute myeloid leukemia, 4 days
Experimental: as §1, §2, §3

[5] = Pharmacokinetics in mice, oral and IV; assay type: in vivo; details: for F: PO 50 mg/kg vs IV 10 mg/kg; for AUC: mouse, in vivo
Experimental: The pharmacokinetics of Cpd. Nos. 4 and 6, and Cpd. D were evaluated in mice.

[6] = Separate PK experiment, plasma concentrations after oral dose; assay type: in vivo; details: mouse, 50 mg/kg, mice
Source text: In a separate PK experiment, the plasma concentrations of Cpd.

[7] = read-out: Plasma concentration, Average / Mean
[8] = read-out: Plasma concentration, Mouse 1
[9] = read-out: Plasma concentration, Mouse 2

IC50 (22RV1 cells)	IC50 (RS4;11 cells)	MDM2 protein level (MDM2 protein [2])	IC50 (HCT116 cells)	IC50 (LNCaP cells)	IC50 (MOLM-13 cells)	IC50 (MOLM-14 cells)	IC50 (MV-4;11 cells)	IC50 (OCI-AML-2 cells)	IC50 (OCI-AML-5 cells)	F [5]	AUC ([5]; IV, 10 mg/kg)	AUC ([5]; PO, 50 mg/kg)	concentration at 1 h [6, 7]	concentration at 1 h [6, 8]	SMILES	p53 protein level (p53 protein [1])	p53 protein level (p53 protein [3])	MDM2 protein level (MDM2 protein [4])	IC50 (ML-2 cells)	IC50 (SIG-M5 cells)	also measured
1330 nM	138 nM	increases													O=C(O)c1ccc(NC(=O)[C@@H]2NC3(CCCCC3)[C@@]3(C(=O)Nc4cc(Cl)ccc43)[C@H]2c2cccc(Cl)c2F)cc1 [Cpd. A, reference compound]	increases					
															O=C(N[C@H]1CC[C@H](C(=O)O)CC1)[C@@H]1NC2(CCCCC2)[C@@]2(C(=O)Nc3cc(Cl)ccc32)[C@H]1c1cccc(Cl)c1F [Cpd. B, reference compound]		increase	increase			
															O=C(NC12CCC(C(=O)O)(CC1)CC2)[C@@H]1NC2(CCCCC2)[C@@]2(C(=O)Nc3cc(Cl)ccc32)[C@H]1c1cccc(Cl)c1F [Cpd. C, reference compound]		increase	increase			
45 nM	2.9 nM	reduce	400 nM	33 nM	34 nM	78 nM	10 nM	110 nM	150 nM	1.27%	193000 ng·h/mL	12300 ng·h/mL	77.9 ng/mL	78 ng/mL	O=C1CCC(N2Cc3c(C#CC4CCN(C(=O)c5ccc(NC(=O)[C@@H]6NC7(CCCCC7)[C@@]7(C(=O)Nc8cc(Cl)ccc87)[C@H]6c6cccc(Cl)c6F)cc5)CC4)cccc3C2=O)C(=O)N1 (stereo partly shown) [Cpd. D, reference compound]	increase			11 nM	110 nM	concentration at 1 h [6, 9]: 77.8 ng/mL; concentration at 3 h [6, 7]: 624 ng/mL; concentration at 3 h [6, 8]: 510 ng/mL; concentration at 3 h [6, 9]: 738 ng/mL; concentration at 6 h [6, 7]: 414 ng/mL; concentration at 6 h [6, 8]: 234 ng/mL; concentration at 6 h [6, 9]: 594 ng/mL
14 nM	0.72 nM	reduce	86 nM	3.2 nM	5.1 nM	7.8 nM	2.3 nM	21 nM	23 nM	0.93%	156000 ng·h/mL	7250 ng·h/mL	0.62 ng/mL	0.231 ng/mL	O=C1CCC(N2Cc3c(C#CC4CCN(C(=O)[C@H]5CC[C@H](NC(=O)[C@@H]6NC7(CCCCC7)[C@@]7(C(=O)Nc8cc(Cl)ccc87)[C@H]6c6cccc(Cl)c6F)CC5)CC4)cccc3C2=O)C(=O)N1 (stereo partly drawn) [Cpd. No. 4, (3′R,4′S,5′R)-6″-chloro-4′-(3-chloro-2-fluorophenyl)-N-((1r,4R)-4-(4-((2-(2,6-dioxopiperidin-3-yl)-1-oxoisoindolin-4-yl)ethynyl)piperidine-1-carbonyl)cyclohexyl)-2″-oxodispiro[cyclohexane-1,2′-pyrrolidine-3′,3″-indoline]-5′-carboxamide]	increase	increase	reduce	1.2 nM	21 nM	concentration at 1 h [6, 9]: 1.01 ng/mL; concentration at 3 h [6, 7]: 1320 ng/mL; concentration at 3 h [6, 8]: 902 ng/mL; concentration at 3 h [6, 9]: 1730 ng/mL; concentration at 6 h [6, 7]: 338 ng/mL; concentration at 6 h [6, 8]: 231 ng/mL; concentration at 6 h [6, 9]: 446 ng/mL
42 nM	2.4 nM		310 nM	13 nM	18 nM	25 nM	6.4 nM	69 nM	71 nM	5.7%	154000 ng·h/mL	43500 ng·h/mL	0.42 ng/mL	0.576 ng/mL	O=C1CCC(N2Cc3c(C#CC4CCN(C(=O)C56CCC(NC(=O)[C@@H]7NC8(CCCCC8)[C@@]8(C(=O)Nc9cc(Cl)ccc98)[C@H]7c7cccc(Cl)c7F)(CC5)CC6)CC4)cccc3C2=O)C(=O)N1 (stereo partly drawn) [Cpd. No. 6, (3′R,4′S,5′R)-6″-chloro-4′-(3-chloro-2-fluorophenyl)-N-(4-(4-((2-(2,6-dioxopiperidin-3-yl)-1-oxoisoindolin-4-yl)ethynyl)piperidine-1-carbonyl)bicyclo[2.2.2]octan-1-yl)-2″-oxodispiro[cyclohexane-1,2′-pyrrolidine-3′,3″-indoline]-5′-carboxamide]		increase	reduce	4.9 nM	63 nM	concentration at 1 h [6, 9]: 0.257 ng/mL; concentration at 3 h [6, 7]: 3220 ng/mL; concentration at 3 h [6, 8]: 3110 ng/mL; concentration at 3 h [6, 9]: 3330 ng/mL; concentration at 6 h [6, 7]: 2380 ng/mL; concentration at 6 h [6, 8]: 2320 ng/mL; concentration at 6 h [6, 9]: 2430 ng/mL

— patent publication US20210309666A1, “SMALL MOLECULE MDM2 PROTEIN DEGRADERS” (THE REGENTS OF THE UNIVERSITY OF MICHIGAN, priority 2018, published 2021)
